Read-outs that look alike come from different tables or passages of the source.
Assays:
[1] = molecular target: biotinylated human Gal-3 (hGal-3) (Homo sapiens, UniProt P17931); assay: Competitive binding assay: biotinylated hGal-3 binding to microplate-adsorbed asialofetuin (ASF), spectrophotometric
Method in brief: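 Competitive binding of biotinylated hGal-3 to plate-adsorbed asialofetuin was measured with serially diluted compounds over 3 h at 4° C. Bound protein was detected with streptavidin-peroxidase and ABTS substrate by absorbance. IC50 values are means of several measurements.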

human Gal-1 (hGal-1) = human Gal-1 (hGal-1) (Homo sapiens, UniProt P09382); assay: Competitive binding assay: biotinylated hGal-1 binding to microplate-adsorbed asialofetuin (ASF), spectrophotometric; conditions: hGal-1 binding to asialofetuin; Table 15; R and S epimers of selected Examples also listed; read-out: IC50 (Galectin-1 inhibition)
Method in brief: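 Biotinylated hGal-1 (300-1000 ng/mL) incubated with compound on asialofetuin-coated plates 3 hours at 4 °C, washed, then streptavidin-peroxidase (80 ng/mL) 1 hour at 4 °C. ABTS substrate read spectrophotometrically; IC50 reported as mean of several measurements.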

[2] = Table 12, hGal-3, read-out: IC50 (Gal-3 inhibition)
[3] = Gal-3 inhibition, Table 5, read-out: IC50
[4] = Table 6, hGal-3, read-out: IC50 (Gal-3 inhibition)
[5] = Gal-3 inhibition, Table 4, read-out: IC50
[6] = Table 11, hGal-3, read-out: IC50 (Gal-3 inhibition)
[7] = Table 8, hGal-3, read-out: IC50 (Gal-3 inhibition)

Sequence of biotinylated human Gal-3 (hGal-3) (P17931 whole entry): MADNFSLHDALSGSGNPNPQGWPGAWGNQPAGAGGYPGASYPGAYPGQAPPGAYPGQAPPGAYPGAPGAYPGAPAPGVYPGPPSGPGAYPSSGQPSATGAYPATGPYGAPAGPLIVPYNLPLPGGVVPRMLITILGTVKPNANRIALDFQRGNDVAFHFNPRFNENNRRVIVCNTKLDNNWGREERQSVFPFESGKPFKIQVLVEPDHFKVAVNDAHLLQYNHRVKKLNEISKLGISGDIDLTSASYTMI
Sequence of human Gal-1 (hGal-1) (P09382 whole entry): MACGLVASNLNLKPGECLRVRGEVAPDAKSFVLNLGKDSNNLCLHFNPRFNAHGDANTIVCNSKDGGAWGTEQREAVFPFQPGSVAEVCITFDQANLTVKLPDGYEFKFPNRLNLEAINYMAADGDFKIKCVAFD

Row | Compound | IC50 (human Gal-1 (hGal-1)) [nM] | other results
1 | CO[C@@H]1[C@@H](n2cc(-c3cc(F)c(F)c(F)c3)nn2)[C@@H](O)[C@@H](CO)O[C@H]1SC(C(=O)N1CCC(C)(C)CC1)C1(O)CCC(F)(F)CC1 (stereo partly drawn) [Example 2.44.245.I., 2-(4,4-Difluoro-1-hydroxycyclohexyl)-1-(4,4-dimethylpiperidin-1-yl)-2-(((2S,3R,4S,5R,6R)-5-hydroxy-6-(hydroxymethyl)-3-methoxy-4-(4-(3,4,5-trifluorophenyl)-1H-1,2,3-triazol-1-yl)tetrahydro-2H-pyran-2-yl)thio)ethan-1-one] | 210 | IC50 [1, 2]: 90 nM
2 | CN(CC(F)(F)F)C(=O)[C@@H](S[C@@H]1O[C@H](CO)[C@H](O)[C@H](n2cc(-c3cc(F)c(F)c(F)c3)nn2)[C@H]1O)C1(O)CCCCC1 [Example 2.39.219S., (S)-2-(((2S,3R,4S,5R,6R)-3,5-Dihydroxy-6-(hydroxymethyl)-4-(4-(3,4,5-trifluorophenyl)-1H-1,2,3-triazol-1-yl)tetrahydro-2H-pyran-2-yl)thio)-2-(1-hydroxycyclohexyl)-N-methyl-N-(2,2,2-trifluoroethyl)acetamide] | 100 | IC50 [1, 3]: 60 nM
3 | CN(CCN1CCOCC1)C(=O)C(S[C@@H]1O[C@H](CO)[C@H](O)[C@H](n2cc(-c3cc(F)c(F)c(F)c3)nn2)[C@H]1O)C(C)(C)O (stereo partly drawn) [Example 2.31.230., 2-(((2S,3R,4S,5R,6R)-3,5-Dihydroxy-6-(hydroxymethyl)-4-(4-(3,4,5-trifluorophenyl)-1H-1,2,3-triazol-1-yl)tetrahydro-2H-pyran-2-yl)thio)-3-hydroxy-N,3-dimethyl-N-(2-morpholinoethyl)butanamide] | 1250 | IC50 [1, 4]: 110 nM
4 | CC1CN(C(=O)[C@@H](S[C@@H]2O[C@H](CO)[C@H](O)[C@H](n3cc(-c4cc(F)c(F)c(F)c4)nn3)[C@H]2O)C2(O)CCOCC2)C1 [Example 2.41.205S., (S)-2-(((2S,3R,4S,5R,6R)-3,5-Dihydroxy-6-(hydroxymethyl)-4-(4-(3,4,5-trifluorophenyl)-1H-1,2,3-triazol-1-yl)tetrahydro-2H-pyran-2-yl)thio)-2-(4-hydroxytetrahydro-2H-pyran-4-yl)-1-(3-methylazetidin-1-yl)ethan-1-one] | 550 | IC50 [1, 5]: 120 nM
5 | O=C(C(S[C@@H]1O[C@H](CO)[C@H](O)[C@H](n2cc(-c3cc(F)c(F)c(F)c3)nn2)[C@H]1O)C1(O)CCOCC1)N1CCC1 (stereo partly drawn) [Example 2.41.206., 1-(Azetidin-1-yl)-2-(((2S,3R,4S,5R,6R)-3,5-dihydroxy-6-(hydroxymethyl)-4-(4-(3,4,5-trifluorophenyl)-1H-1,2,3-triazol-1-yl)tetrahydro-2H-pyran-2-yl)thio)-2-(4-hydroxytetrahydro-2H-pyran-4-yl)ethan-1-one] | 1500 | IC50 [1, 5]: 260 nM
6 | CCN(C)C(=O)C(S[C@@H]1O[C@H](CO)[C@H](O)[C@H](n2cc(-c3cc(F)c(Cl)c(F)c3)nn2)[C@H]1O)C1(O)CCOCC1 (stereo partly drawn) [Example 11.41.203., 2-(((2S,3R,4S,5R,6R)-4-(4-(4-Chloro-3,5-difluorophenyl)-1H-1,2,3-triazol-1-yl)-3,5-dihydroxy-6-(hydroxymethyl)tetrahydro-2H-pyran-2-yl)thio)-N-ethyl-2-(4-hydroxytetrahydro-2H-pyran-4-yl)-N-methylacetamide] | 320 | IC50 [1, 6]: 30 nM
7 | CCN(C)C(=O)[C@@H](S[C@@H]1O[C@H](CO)[C@H](O)[C@H](n2cc(-c3cc(F)c(F)c(F)c3)nn2)[C@H]1O)C(O)(CC)CC [Example 2.32.203S., (S)-2-(((2S,3R,4S,5R,6R)-3,5-Dihydroxy-6-(hydroxymethyl)-4-(4-(3,4,5-trifluorophenyl)-1H-1,2,3-triazol-1-yl)tetrahydro-2H-pyran-2-yl)thio)-N,3-diethyl-3-hydroxy-N-methylpentanamide] | 730 | IC50 [1, 4]: 240 nM
8 | CCN(C)C(=O)C(S[C@@H]1O[C@H](CO)[C@H](O)[C@H](n2cc(-c3cc(F)c(C)c(F)c3)nn2)[C@H]1O)C1(O)CCOCC1 (stereo partly drawn) [Example 3.41.203., 2-(((2S,3R,4S,5R,6R)-4-(4-(3,5-Difluoro-4-methylphenyl)-1H-1,2,3-triazol-1-yl)-3,5-dihydroxy-6-(hydroxymethyl)tetrahydro-2H-pyran-2-yl)thio)-N-ethyl-2-(4-hydroxytetrahydro-2H-pyran-4-yl)-N-methylacetamide] | 680 | IC50 [1, 6]: 40 nM
9 | CCN(CC1CCOCC1)C(=O)C(S[C@@H]1O[C@H](CO)[C@H](O)[C@H](n2cc(-c3cc(F)c(F)c(F)c3)nn2)[C@H]1O)C1(O)CCOCC1 (stereo partly drawn) [Example 2.41.214., 2-(((2S,3R,4S,5R,6R)-3,5-Dihydroxy-6-(hydroxymethyl)-4-(4-(3,4,5-trifluorophenyl)-1H-1,2,3-triazol-1-yl)tetrahydro-2H-pyran-2-yl)thio)-N-ethyl-2-(4-hydroxytetrahydro-2H-pyran-4-yl)-N-((tetrahydro-2H-pyran-4-yl)methyl)acetamide] | 120 | IC50 [1, 5]: 30 nM
10 | CCN(C)C(=O)[C@@H](S[C@@H]1O[C@H](CO)[C@H](O)[C@H](n2cc(-c3cc(F)c(F)c(F)c3)nn2)[C@H]1O)C1(O)CCN(C(=O)NC2CC2)CC1 [Example 2.49.203S., (S)-N-Cyclopropyl-4-(1-(((2S,3R,4S,5R,6R)-3,5-dihydroxy-6-(hydroxymethyl)-4-(4-(3,4,5-trifluorophenyl)-1H-1,2,3-triazol-1-yl)tetrahydro-2H-pyran-2-yl)thio)-2-(ethyl(methyl)amino)-2-oxoethyl)-4-hydroxypiperidine-1-carboxamide] | 60 | IC50 [1, 7]: 40 nM
11 | CCN(C)C(=O)C(S[C@@H]1O[C@H](CO)[C@H](O)[C@H](n2cc(-c3cc(F)c(F)c(F)c3)nn2)[C@H]1OC)C1(O)CCC(F)(F)CC1 (stereo partly drawn) [Example 2.44.203.I., 2-(4,4-Difluoro-1-hydroxycyclohexyl)-N-ethyl-2-(((2S,3R,4S,5R,6R)-5-hydroxy-6-(hydroxymethyl)-3-methoxy-4-(4-(3,4,5-trifluorophenyl)-1H-1,2,3-triazol-1-yl)tetrahydro-2H-pyran-2-yl)thio)-N-methylacetamide] | 120 | IC50 [1, 2]: 40 nM
12 | CCN(C)C(=O)C(S[C@@H]1O[C@H](CO)[C@H](O)[C@H](n2cc(-c3cc(F)c(F)c(F)c3)nn2)[C@H]1O)C1(O)CCN(S(C)(=O)=O)CC1 (mixture of isomers) [Example 2.47.203., 2-(((2S,3R,4S,5R,6R)-3,5-Dihydroxy-6-(hydroxymethyl)-4-(4-(3,4,5-trifluorophenyl)-1H-1,2,3-triazol-1-yl)tetrahydro-2H-pyran-2-yl)thio)-N-ethyl-2-(4-hydroxy-1-(methylsulfonyl)piperidin-4-yl)-N-methylacetamide] | 110 | IC50 [1, 7]: 30 nM
13 | CN(C(=O)[C@@H](S[C@@H]1O[C@H](CO)[C@H](O)[C@H](n2cc(-c3cc(F)c(F)c(F)c3)nn2)[C@H]1O)C1(O)CCOCC1)C1COC1 [Example 2.41.235S., (S)-2-(((2S,3R,4S,5R,6R)-3,5-Dihydroxy-6-(hydroxymethyl)-4-(4-(3,4,5-trifluorophenyl)-1H-1,2,3-triazol-1-yl)tetrahydro-2H-pyran-2-yl)thio)-2-(4-hydroxytetrahydro-2H-pyran-4-yl)-N-methyl-N-(oxetan-3-yl)acetamide] | 90 | IC50 [1, 3]: 40 nM
14 | CCN(C)C(=O)C(S[C@@H]1O[C@H](CO)[C@H](O)[C@H](n2cc(-c3cc(F)c(Cl)c(Cl)c3)nn2)[C@H]1O)C1(O)CCOCC1 (stereo partly drawn) [Example 17.41.203., 2-(((2S,3R,4S,5R,6R)-4-(4-(3,4-Dichloro-5-fluorophenyl)-1H-1,2,3-triazol-1-yl)-3,5-dihydroxy-6-(hydroxymethyl)tetrahydro-2H-pyran-2-yl)thio)-N-ethyl-2-(4-hydroxytetrahydro-2H-pyran-4-yl)-N-methylacetamide] | 140 | IC50 [1, 6]: 40 nM
15 | N-Cyclopropyl-4-(2-(ethyl(methyl)amino)-1-(((2S,3R,4S,5R,6R)-5-hydroxy-6-(hydroxymethyl)-3-methoxy-4-(4-(3,4,5-trifluorophenyl)-1H-1,2,3-triazol-1-yl)tetrahydro-2H-pyran-2-yl)thio)-2-oxoethyl)-4-hydroxypiperidine-1-carboxamide [Example 2.49.226.I.] | 180 | IC50 [1, 7]: 100 nM
16 | CCN(C)C(=O)[C@H](S[C@@H]1O[C@H](CO)[C@H](O)[C@H](n2cc(-c3cc(F)c(F)c(F)c3)nn2)[C@H]1O)C1(O)CCN(S(=O)(=O)C2CC2)CC1 [Example 2.51.203R., (R)-2-(1-(Cyclopropylsulfonyl)-4-hydroxypiperidin-4-yl)-2-(((2S,3R,4S,5R,6R)-3,5-dihydroxy-6-(hydroxymethyl)-4-(4-(3,4,5-trifluorophenyl)-1H-1,2,3-triazol-1-yl)tetrahydro-2H-pyran-2-yl)thio)-N-ethyl-N-methylacetamide] | 7500 | IC50 [1, 7]: 4960 nM
17 | CO[C@@H]1[C@@H](n2cc(-c3cc(F)c(F)c(F)c3)nn2)[C@@H](O)[C@@H](CO)O[C@H]1SC(C(=O)N(C)C1COC1)C1(O)CCC(F)(F)CC1 (stereo partly drawn) [Example 2.44.243.I., 2-(4,4-Difluoro-1-hydroxycyclohexyl)-2-(((2S,3R,4S,5R,6R)-5-hydroxy-6-(hydroxymethyl)-3-methoxy-4-(4-(3,4,5-trifluorophenyl)-1H-1,2,3-triazol-1-yl)tetrahydro-2H-pyran-2-yl)thio)-N-methyl-N-(oxetan-3-yl)acetamide] | 170 | IC50 [1, 2]: 110 nM

Source: patent US12410208B2, “(2-acetamidyl)thio-beta-D-galactopyranoside derivatives” (Idorsia Pharmaceuticals Ltd, priority 2020, dated 2025)
